Values joined by “and” are separate entries in the source; they are usually repeats but may differ in a detail not shown here. Equal values may be shown once. Toxic doses and inconclusive results are not listed. Cut-off read from the data, not from the text of the source: active = T/C of 150% or more; inactive = T/C below 125%. Square brackets hold non-standard residues; d marks the D form. Peptide text beside a SMILES is read from it. * marks the point of attachment. ξ: configuration not given here. ξL = CC(C)CC(N)C(=O)O; ClAc = O=C(CCl)*
Tested on: L1210 leukemia ip in BDF1 mice, survival T/C
Experiment: NCI In Vivo Anticancer Drug Screen. Data for tumor model L1210 Leukemia (intraperitoneal) in B6D2F1 (BDF1) mice
Details: endpoint: mean survival time, higher = longer survival
In short: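 Each compound was tested against a transplantable tumor grown in mice. The endpoint was survival, with treated animals benchmarked against vehicle controls as a simple ratio.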

[1] = dose: 100.0 mg/kg/injection, schedule: Q01DX009 (ip), vehicle: saline
[2] = dose: 200.0 mg/kg/injection, schedule: Q01DX009 (ip), vehicle: saline
[3] = dose: 100.0 mg/kg/injection, schedule: Q01DX001 (ip), vehicle: saline
[4] = dose: 200.0 mg/kg/injection, schedule: Q01DX001 (ip), vehicle: saline
[5] = dose: 400.0 mg/kg/injection, schedule: Q01DX001 (ip), vehicle: saline
[6] = dose: 50.0 mg/kg/injection, schedule: Q01DX009 (ip), vehicle: Klucel (hydroxypropylcellulose) (HPC)
[7] = dose: 100.0 mg/kg/injection, schedule: Q01DX009 (ip), vehicle: Klucel (hydroxypropylcellulose) (HPC)
[8] = dose: 200.0 mg/kg/injection, schedule: Q01DX009 (ip), vehicle: Klucel (hydroxypropylcellulose) (HPC)
[9] = dose: 100.0 mg/kg/injection, schedule: Q04DX003 (ip), vehicle: Klucel (hydroxypropylcellulose) (HPC)
[10] = dose: 200.0 mg/kg/injection, schedule: Q04DX003 (ip), vehicle: Klucel (hydroxypropylcellulose) (HPC)
[11] = dose: 25.0 mg/kg/injection, schedule: Q01DX009 (ip), vehicle: saline with Tween-80
[12] = dose: 50.0 mg/kg/injection, schedule: Q01DX009 (ip), vehicle: saline with Tween-80
[13] = dose: 100.0 mg/kg/injection, schedule: Q01DX009 (ip), vehicle: saline with Tween-80
[14] = dose: 100.0 mg/kg/injection, schedule: Q04DX003 (ip), vehicle: saline with Tween-80
[15] = dose: 200.0 mg/kg/injection, schedule: Q01DX009 (ip), vehicle: saline with Tween-80
[16] = dose: 200.0 mg/kg/injection, schedule: Q04DX003 (ip), vehicle: saline with Tween-80
[17] = dose: 100.0 mg/kg/injection, schedule: Q04DX002 (ip), vehicle: Klucel (hydroxypropylcellulose) (HPC)
[18] = dose: 200.0 mg/kg/injection, schedule: Q04DX002 (ip), vehicle: Klucel (hydroxypropylcellulose) (HPC)
[19] = dose: 400.0 mg/kg/injection, schedule: Q04DX002 (ip), vehicle: Klucel (hydroxypropylcellulose) (HPC)
[20] = dose: 25.0 mg/kg/injection, schedule: Q01DX009 (ip), vehicle: Klucel (hydroxypropylcellulose) (HPC)
[21] = dose: 400.0 mg/kg/injection, schedule: Q04DX003 (ip), vehicle: Klucel (hydroxypropylcellulose) (HPC)

Measured: T/C

Nc1ncnc2nncnc12
inactive: dose: 50.0 mg/kg/injection, schedule: Q01DX001 (ip), vehicle: carboxymethylcellulose (CMC) 93 % of control | dose: 100.0 mg/kg/injection, schedule: Q01DX001 (ip), vehicle: carboxymethylcellulose (CMC) 93 % of control

Cc1ccc(S(=O)(=O)N2CCC(Br)(Br)C(=O)c3ccccc32)cc1
inactive: [1] 97 % of control | [2] 100 % of control | dose: 400.0 mg/kg/injection, schedule: Q01DX009 (ip), vehicle: saline 102 % of control

CSc1ccc(NC(=O)Nc2ccccc2C(N)=O)cc1
inactive: [1] 108 % of control | dose: 100.0 mg/kg/injection, schedule: Q04DX003 (ip), vehicle: saline 92 % of control | [2] 114 % of control | dose: 200.0 mg/kg/injection, schedule: Q04DX003 (ip), vehicle: saline 98 % of control | dose: 400.0 mg/kg/injection, schedule: Q04DX003 (ip), vehicle: saline 95 % of control

O=[N+]([O-])c1ccc(N/N=C\c2c(Cl)c(Cl)c(/C=N/Nc3ccc([N+](=O)[O-])cc3)c(Cl)c2Cl)cc1
inactive: dose: 50.0 mg/kg/injection, schedule: Q01DX001 (ip), vehicle: saline 91 % of control | [3] 91 % of control | [4] 94 % of control | [5] 94 % of control

CCCCOCCOCCOC(OCCOCCOCCCC)c1ccc2c(c1)OCO2
inactive: dose: 100.0 mg/kg/injection, schedule: Q04DX002 (ip), vehicle: saline 88 % of control | dose: 200.0 mg/kg/injection, schedule: Q04DX002 (ip), vehicle: saline 92 % of control | dose: 400.0 mg/kg/injection, schedule: Q04DX002 (ip), vehicle: saline 95 % of control

C/C(=C\CN1C(=O)CN(C)C1=O)CCC1OC1(C)C (stereo not drawn)
inactive: [3] 115 % of control | dose: 100.0 mg/kg/injection, schedule: Q04DX003 (ip), vehicle: water 100 % of control | [4] 111 % of control | dose: 200.0 mg/kg/injection, schedule: Q04DX003 (ip), vehicle: water 98 % of control | [5] 114 % of control | dose: 400.0 mg/kg/injection, schedule: Q04DX003 (ip), vehicle: water 104 % of control

COc1cc(CCNC(=O)Cc2ccc(OCc3ccccc3)cc2)ccc1OCc1ccccc1
inactive: [6] 91 % of control | [7] 89 % of control | dose: 100.0 mg/kg/injection, schedule: Q04DX003 (ip), vehicle: other 111 % of control | [8] 89 % of control | dose: 200.0 mg/kg/injection, schedule: Q04DX003 (ip), vehicle: other 105 % of control | dose: 400.0 mg/kg/injection, schedule: Q04DX003 (ip), vehicle: other 94 % of control

Nc1nc(CCl)nc(Nc2ccccc2)n1
inactive: [7] 105 % of control | [9] 104 % of control | [8] 86 % of control | [10] 98 % of control

CN(C)CCCCCO
inactive: [11] 96 % of control | [12] 102 % of control and 87 % of control | [13] 91 % of control | [14] 97 % of control | [15] 100 % of control | [16] 100 % of control

Cc1ccc(C(=O)CCCc2ccccn2)cc1
inactive: dose: 222.0 mg/kg/injection, schedule: Q01DX Z (ip), vehicle: methylcellulose (MC) 98 % of control | dose: 333.0 mg/kg/injection, schedule: Q01DX Z (ip), vehicle: methylcellulose (MC) 100 % of control | dose: 500.0 mg/kg/injection, schedule: Q01DX Z (ip), vehicle: methylcellulose (MC) 87 % of control

CC1(O)C2CC3CC(C2)CC1C3 (stereo not drawn)
inactive: [17] 113 % of control | [18] 98 % of control and 87 % of control | [19] 94 % of control

O=C(NCCCl)NC1CCCc2ccccc21 (stereo not drawn)
inactive: dose: 6.25 mg/kg/injection, schedule: Q01DX009 (ip), vehicle: Klucel (hydroxypropylcellulose) (HPC) 95 % of control | dose: 12.5 mg/kg/injection, schedule: Q01DX009 (ip), vehicle: Klucel (hydroxypropylcellulose) (HPC) 94 % of control | [20] 90 % of control | [6] 92 % of control | dose: 100.0 mg/kg/injection, schedule: Q01DX001 (ip), vehicle: Klucel (hydroxypropylcellulose) (HPC) 105 % of control | dose: 200.0 mg/kg/injection, schedule: Q01DX001 (ip), vehicle: Klucel (hydroxypropylcellulose) (HPC) 91 % of control

CC(C)CC(NC(=O)CCl)C(=O)NCC(=O)O (stereo not drawn) (ClAc-[ξL]-Gly-OH)
inactive: [13] 94 % of control | [14] 101 % of control | [16] 95 % of control | dose: 400.0 mg/kg/injection, schedule: Q04DX003 (ip), vehicle: saline with Tween-80 103 % of control

COc1cc(/C=C(\C#N)c2cccc3ccccc23)cc(OC)c1OC
inactive: [9] 107 % of control | [10] 103 % of control | [21] 94 % of control

CCSC1C(OC(C)=O)C(C(CSC(C)=O)OC(C)=O)OC1n1cc(C)c(=O)[nH]c1=O (stereo not drawn)
inactive: dose: 100.0 mg/kg/injection, schedule: Q01DX005 (ip), vehicle: saline 94 % of control | dose: 200.0 mg/kg/injection, schedule: Q01DX005 (ip), vehicle: saline 98 % of control

Cc1cc(C)c(NC(=O)Nc2ccccc2F)cc1C
inactive: [20] 98 % of control | [6] 93 % of control | [7] 96 % of control | [17] 102 % of control | [8] 89 % of control | [18] 91 % of control | [19] 115 % of control

O=CNc1ccc(C(=O)O)cc1
inactive: [13] 95 % of control | [15] 100 % of control | dose: 400.0 mg/kg/injection, schedule: Q01DX009 (ip), vehicle: saline with Tween-80 95 % of control

CCCC(O)(CC)C1CCCC1C (stereo not drawn)
inactive: [12] 105 % of control | [13] 111 % of control | [15] 94 % of control

O=[N+]([O-])c1ccccc1CSc1ncnc2nc[nH]c12
inactive: dose: 132.0 mg/kg/injection, schedule: Q04DX003 (ip), vehicle: saline with Tween-80 102 % of control | [16] 100 % of control | dose: 300.0 mg/kg/injection, schedule: Q04DX003 (ip), vehicle: saline with Tween-80 105 % of control

CS(=O)(=O)OCCN(CCOS(C)(=O)=O)c1ccc(C=Nc2cccc(Cl)c2)c(Cl)c1
inactive: [9] 106 % of control | [10] 105 % of control | [21] 113 % of control

Cc1ccc(Cl)c(C(=O)C(Br)C(Br)c2ccccc2)c1 (stereo not drawn)
inactive: dose: 12.5 mg/kg/injection, schedule: Q01DX009 (ip), vehicle: saline with Tween-80 100 % of control | [11] 100 % of control | [12] 94 % of control and 100 % of control

Cc1ccc(N2CCCC(=O)C(O)CCC2)cc1 (stereo not drawn)
inactive: [3] 98 % of control | [1] 100 % of control | [4] 90 % of control | [2] 96 % of control | dose: 300.0 mg/kg/injection, schedule: Q01DX009 (ip), vehicle: saline 116 % of control | [5] 90 % of control

From PubChem BioAssay AID248 (DTP/NCI, 2004)
